Measurements from patent publication US12521378B2, “Administration of R-beta-hydroxybutyrate salt blend and related compounds in humans” (priority 2016, dated 2026).

Tests used:
[1] = test system: superoxide dismutase 2; assay: superoxide dismutase 2 levels in the brain; type: in vivo; details: e.g. 10 g; standard or ketogenic diet
Experimental: Individuals were given a standard diet or ketogenic diet. Some individuals were administered R-beta-hydroxybutyrate (e.g., 10 g).

[2] = Bench Press strength and power testing at 50% of 1-RM; type: in vivo, human; details: 5 g; for increase in minimum power: averages of power measurements
Experimental: FIGS. 19A-19B illustrate the results of the testing. […] Thus, R-beta-hydroxybutyrate experienced a greater than expected impact when compared with D,L-beta-hydroxybutyrate. The individuals were also tested for power. FIG. 19C illustrates the results of the testing (e.g., averages of power measurements). As illustrated, R-beta-hydroxybutyrate administration increased minimum power by 26%, while the DL-beta-hydroxybutyrate administration raised power by 2%.

[3] = Xray absorptiometry, fat mass and lean mass; type: in vivo, human; details: 5 g twice daily for 3 months; one individual
Experimental: Xray absorptiometry was performed to determine the impact of the administration of R-beta-hydroxybutyrate on fat loss. […] As illustrated, the individual experienced a greater than approximately 10% decrease in fat mass. […] Thus, the R-beta-hydroxybutyrate may cause weight loss through fat loss rather than lean mass (e.g., muscle mass).

[4] = motor function testing by eye movements in an individual with Parkinson's disease; type: in vivo, human; details: approximately 10 g; approximately 30 minutes after administration; one Parkinson's patient, pre vs post
Excerpt: The testing included a right-eye visual and motor performance apparatus to track motor function through eye movements. FIG. 8 illustrates chart illustrating the results of the motor skill testing following an example implementation of administration of R-beta-hydroxybutyrate. FIG. 8 illustrates average results for a similar non-Parkinson's population, the patient pre-administration of R-beta-hydroxybutyrate, and the patient post-administration of R-beta-hydroxybutyrate.

[5] = test system: C-reactive protein; assay: C-reactive protein levels after administration; type: in vivo, human; details: one individual with high C-reactive protein; 62.5 before administration
Experimental: (§1) An individual with high C-reactive protein, which is associated with inflammation, was administered R-beta-hydroxybutyrate. […] In addition, fasting glucose was decreased (e.g., 104 to 95).

[6] = fasting glucose after administration; type: in vivo, human; details: same individual; 104 before administration
Experimental: as §1

[7] = Respiratory exchange ratio (RER); type: in vivo, human; details: 10 subjects
Experimental: 10 subjects were administered approximately 5 g or 10 g of D,L-beta-hydroxybutyrate or R-beta-hydroxybutyrate, and Respiratory exchange ratio was examined (RER, a ratio of carbon dioxide/oxygen).

[8] = perceived hunger, satiety and perceived energy; type: in vivo, human
Experimental: FIGS. 18A-18C illustrate the results of the testing. FIG. 18A illustrates perceived hunger, FIG. 18B illustrates perceived satiety, and FIG. 18C illustrates perceived energy. […] R-beta-hydroxybutyrate sustained elevated perceived energy levels from 0 minutes at 60, 90, and 120 minutes post consumption, as opposed to D,L-beta-hydroxybutyrate.

[9] = 2 km time test on wingate cycle ergometer; type: in vivo, human; details: 10 g, 30 minutes before 2 km time test
Experimental: Five healthy individual were given a 2 km time test (e.g., 4 cycles of low to severely intense exercise on a […] ergometer) 30 minutes after administration of a placebo, 10 g of R-beta-hydroxybutyrate, and 10 g of […]. FIG. 12 illustrates the average blood ketone levels and FIG. 13 illustrates the percentage improvement over the administration of the placebo. […] FIG. 14 illustrates the perceived exertion experienced by the individuals. […] Thus, the R-beta-hydroxybutyrate has an unexpectedly impact on ketone levels and performance.

[10] = mental acuity testing (tracking, saccades, processing speed, response accuracy); type: in vivo, human
Experimental: Processing speed testing was performed (e.g, processing speed is considered a true measure of cognitive performance). […] Response accuracy was also tested.

[11] = test system: Lipoprotien lipase (LPL); assay: average Lipoprotien lipase (LPL) in rats; type: in vivo; details: standard diet plus salt equivalent to 5 g or 10 g; 10 rats per grouping
Excerpt: FIG. 11 illustrates the average Lipoprotien lipase (LPL) in the rats. Since LPL is needed to transport fat into adipose tissue, lowering LPL levels would inhibit fat storage and encourage usage of fat storages.

[12] = lifespan of rats on low-fat standard American diet; type: in vivo, Fischer 344 rats; details: supplemented versus standard diet at 20 months
Excerpt: Sixteen rats (Fischer 344 rats) were studied for the effect of R-beta-hydroxybutyrate on lifespan. A first grouping of eight rats were fed an equivalent to a low-fat standard American diet and a second grouping of eight rats were fed the same equivalent to a low-fat standard American diet and supplemented with R-beta-hydroxybutyrate salt (e.g., sodium R-beta-hydroxybutyrate). The second grouping of rats were supplemented with the R-beta-hydroxybutyrate salt at middle age. FIG. 7 illustrates the average lifespans of the groupings of rats. […] Since the rat study was performed as an approximation of impact in humans, the addition of R-beta-hydroxybutyrate to a standard American low-fat diet may increase lifespan.

[13] = blood ketone level over time after administration of sodium beta-hydroxybutyrate; type: in vivo, human; details: 5 mg of sodium R-beta-hydroxybutyrate (so in the source); average of 4 subjects; 30, 60, 90, 120 and 180 minutes
[14] = blood ketone levels after R-, L- or D,L-beta-hydroxybutyrate; type: in vivo, human; details: 5 g or 10 mg (so in the source)
Experimental: Individuals were 5 g or 10 mg of R-beta-hydroxybutyrate, L-beta-hydroxybutyrate, or D,L-beta-hydroxybutyrate and blood ketone levels were measured.

[15] = glucose challenge test, blood ketone levels; type: in vivo, human; details: 250 mg DHBB alone or with 5 mg sodium beta-hydroxybutyrate; one subject; 120 minutes
Experimental: A subject was subject to a glucose challenge test (75 g glucose) after administration of 250 mg dihydroberberine (DHBB) and a glucose challenge test after administration of 250 mg dihydroberberine (DHBB) along with 5 mg of beta-hydroxybutyrate (e.g., 5 mg sodium beta-hydroxybutyrate).

[16] = glucose challenge test (75 g glucose), blood glucose levels; type: in vivo, human
Experimental: Five subjects were subject to three separate glucose challenge tests (75 g glucose) after administration of 500 mg berberine (BB), 250 mg of dihydroberberine (DHBB) or 500 dihydroberberine. Blood was drawn prior to administration and after 30, 60, 90, 120, and 180 minutes. FIG. 1 illustrates the results of the administration protocol. FIG. 1 illustrates the average blood glucose level of the 5 subjects at each of the times.
As in Example 1, five subjects were subject to three separate glucose challenge tests (75 g glucose) after administration of 500 mg berberine (BB), 250 mg of dihydroberberine (DHBB) or 500 dihydroberberine. FIG. 2 illustrates a ranking which compositions caused the lowest blood glucose levels during a oral glucose challenge. […] For example, in some individuals (e.g., individuals with moderate glucose tolerance) may achieve better blood glucose control when administered a lower dosage of DHBB.
Five subjects were subject to three separate glucose challenge tests (75 g glucose) approximately 25 minutes after administration of 500 mg berberine (BB), 250 mg of dihydroberberine (DHBB) or 500 dihydroberberine. Blood was drawn prior to administration and after 30, 60, 90, 120, and 180 minutes and tested for glucose levels. FIG. 4 illustrates the results of the administration protocol.

[17] = before vs after, 5 resistance trained males, 50% of 1-RM

## C[C@@H](O)CC(=O)O [R-beta-hydroxybutyrate, (R)-3-Hydroxybutyric acid]
[1]
  superoxide dismutase 2 levels (SOD) in the brain: numerically increase superoxide dismutase 2 levels
[2]
  increase in minimum power: 26%
[2]; [17]
  increase in Bench Press test result: 11%
[3]
  decrease in fat mass: > 10%
  lean mass: maintaining lean mass
[4]
  motor function: increased motor function
[5]
  C-reactive protein levels after administration: 4.4
[6]
  fasting glucose after administration: 95
[7]; 10 g
  reduction of RER relative to D,L-beta-hydroxybutyrate: approximately 3 ×
[8]; 0 to 30 minutes post consumption, 5 g-10 g
  improvement of perceived energy relative to D,L-beta-hydroxybutyrate: double that of D,L-beta-hydroxybutyrate
[8]; 5 g-10 g
  raise of perceived energy: 18%
[8]; 30 minutes post consumption, relative to baseline, 5 g-10 g
  improvement of satiety levels relative to DL-beta-hydroxybutyrate: 2.3 ×
[8]; in vivo
  raise of perceived energy relative to peak increase with DL-beta-hydroxybutyrate: more than 2 times
[8]; post ingestion
  time for which raised perceived energy was sustained: 2 h
[9]
  perceived exertion: perceived exertion improvement
[9]; five healthy individuals
  blood ketone levels compared with D,L-beta-hydroxybutyrate: increased more than double
[9]; improvement over placebo
  performance (improvement in time) compared with D,L-beta-hydroxybutyrate: increased by more than double
[10]; e.g. 5 g
  Horizontal Saccades, improvement relative to D,L-beta-hydroxybutyrate: 4 times
  Horizontal Saccades, performance improvement: 13.8%
  improvement of processing speed: 27.7%
  increase of response accuracy: 37 percentage points
[10]; e.g. 10 g
  Circular Tracking, improvement in tracking accuracy: approximately 3%
  Vertical Tracking, improvement of performance: 13.8%
  Vertical Tracking, improvement relative to D,L-beta-hydroxybutyrate: approximately 3 times
[11]
  LPL levels: decreases LPL levels
[12]
  rats with increased lifespan: ≥ 38.5%

## C[C@@H](O)CC(=O)[O-].[Na+] [sodium R-beta-hydroxybutyrate]
[13]
  blood ketone level compared with 10 g of D,L-beta-hydroxybutyrate: approximately the same blood ketone level

## CC(O)CC(=O)O (racemic) [D,L-beta-hydroxybutyrate, reference compound]
[2]
  increase in minimum power: 2%
[2]; [17]
  decrease in Bench Press test result: 2%
[14]
  blood ketone levels: does not lower blood ketone levels to the same extent as R-beta-hydroxybutyrate
[7]; D,L-beta-hydroxybutyrate, more than 5 g
  increase of RER: 17%
[9]
  perceived exertion: did not feel an impact in perceived exertion
[10]; DL-beta-hydroxybutyrate
  increase of response accuracy: 12.7%
[10]; e.g. 5 g
  Horizontal Saccades, performance improvement: 3.2%
  improvement of processing speed: approximately 18%
[10]; e.g. 10 g
  Circular Tracking, improvement in tracking accuracy: no improvement
  Vertical Tracking, improvement of performance: 4.6%

## COc1ccc2c(c1OC)CN1CCc3cc4c(cc3C1=C2)OCO4 [dihydroberberine]
[15]
  blood ketone levels after glucose challenge: unexpectedly increased even 120 minutes after the glucose challenge
[16]; 250 mg DHBB vs 500 mg DHBB, 5 subjects
  control of blood glucose levels during oral glucose challenge (ranking): control blood glucose levels better than even 500 mg of DHBB
[16]; 250 mg or 500 dihydroberberine vs 500 mg berberine, 5 subjects
  blood glucose during oral glucose challenge versus berberine: lower blood glucose than administration of berberine in most individuals
[16]; 75 g glucose challenge, 250 mg or 500 dihydroberberine vs 500 mg berberine, average of 5 subjects, 30-180 minutes
  fluctuations in blood glucose level: less fluctuations in blood glucose level than berberine
[16]; 75 g glucose challenge, dihydroberberine vs 500 mg berberine, 5 subjects
  blood glucose levels relative to fasting blood glucose: keep blood glucose levels closer to fasting blood glucose than berberine
[16]; individuals with moderate baseline glucose levels, glucose challenge about 25 minutes after administration, vs 500 mg berberine
  moderation of blood glucose levels: moderates blood glucose levels better than even double the quantity of berberine

## C[C@H](O)CC(=O)O [L-beta-hydroxybutyrate]
[14]
  blood ketone levels: does not decrease blood ketones
